From US20180125795A1, “[…] COMPOSITIONS AND METHODS” (ThermoLife International, LLC, priority 2017, published 2018)

System: human subject
Experiment: Post-exercise recovery (whole-body oxygen consumption)
Type: in vivo
Description: The administration of cinnamaldehyde promotes post-exercise recovery by reducing the time for a subject's oxygen consumption level (VO2) to return to his or her pre-exercise level when cinnamaldehyde is administered after exercise. In these implementations, cinnamaldehyde is administered with a protein and/or a carbohydrate. The protein may be any protein commonly used in nutritional supplement manufacture, which includes but is not limited to whey protein, milk protein, casein protein, beef protein, soy protein, hemp protein, rice protein, canola protein, spirulina, and pea protein. The carbohydrate may by any commonly used form of simple or complex carbohydrates used in the manufacture of dietary supplements, which includes but is not limited glucose, fructose, dextrose, palatinose, maltodextrin, various starches, activated barley, waxy maize, cereals, and oats. In a preferred embodiment, cinnamaldehyde is administered to the human subject within two hours of completion of exercise, for example within 90 minutes, 60 minutes, or 30 minutes of completion of exercise.
The effect of cinnamaldehyde on promoting post-exercise exercise is best when cinnamaldehyde is administered within an hour after exercise and its effect is reduced when administered two hours after exercise. The effect of cinnamaldehyde on promoting post-exercise exercise is enhanced when it is administered with a protein and/or a carbohydrate (for example, a combination of whey powder and glucose).

With `O=CC=Cc1ccccc1` [cinnamaldehyde] the “time for whole-body oxygen consumption to return to pre-exercise levels” value (administered after the human subject completed an exercise session) was “reduced the time”, the “effect on promoting post-exercise recovery” value (from here on “effect”) (administered two hours after exercise) was “reduced” and the “effect” value (administered with a protein and/or a carbohydrate (e.g. whey powder and glucose)) was “enhanced”. For the same compound, the “effect” value (administered within an hour after exercise) was “best”.
